Test results from PubChem BioAssay AID256 (DTP/NCI, 2004).
Several values for one entry are separate records, joined by “and”; a condition that tells them apart may be missing. Identical values can stand only once. Toxic doses and inconclusive results are not listed.

Test system: CD2F1 mice, L1210 leukemia ip, survival T/C
Assay: NCI In Vivo Anticancer Drug Screen. Data for tumor model L1210 Leukemia (intraperitoneal) in CD2F1 (CDF1) mice
Conditions: higher = longer survival
Summary of the method: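 In this screen, transplantable tumors were grown in mice given either the compound or its vehicle. Results were expressed as the treated measurement relative to the control measurement.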

[1] = endpoint: mean survival time, dose: 100.0 mg/kg/injection, schedule: Q04DX003 (ip), vehicle: saline with Tween-80
[2] = endpoint: mean survival time, dose: 200.0 mg/kg/injection, schedule: Q04DX003 (ip), vehicle: saline with Tween-80
[3] = endpoint: mean survival time, dose: 400.0 mg/kg/injection, schedule: Q04DX003 (ip), vehicle: saline with Tween-80
[4] = endpoint: mean survival time, dose: 50.0 mg/kg/injection, schedule: Q04DX003 (ip), vehicle: Klucel (hydroxypropylcellulose) (HPC)
[5] = endpoint: mean survival time, dose: 6.25 mg/kg/injection, schedule: Q04DX003 (ip), vehicle: distilled water + Tween-80
[6] = endpoint: mean survival time, dose: 12.5 mg/kg/injection, schedule: Q04DX003 (ip), vehicle: distilled water + Tween-80
[7] = endpoint: mean survival time, dose: 25.0 mg/kg/injection, schedule: Q04DX003 (ip), vehicle: distilled water + Tween-80
[8] = endpoint: mean survival time, dose: 50.0 mg/kg/injection, schedule: Q04DX003 (ip), vehicle: distilled water + Tween-80
[9] = endpoint: mean survival time, dose: 100.0 mg/kg/injection, schedule: Q04DX003 (ip), vehicle: distilled water + Tween-80
[10] = endpoint: mean survival time, dose: 50.0 mg/kg/injection, schedule: Q01DX009 (ip), vehicle: saline with Tween-80
[11] = endpoint: mean survival time, dose: 100.0 mg/kg/injection, schedule: Q01DX009 (ip), vehicle: saline with Tween-80
[12] = endpoint: mean survival time, dose: 200.0 mg/kg/injection, schedule: Q01DX009 (ip), vehicle: saline with Tween-80
[13] = endpoint: mean survival time, dose: 100.0 mg/kg/injection, schedule: Q04DX002 (ip), vehicle: saline with Tween-80
[14] = endpoint: mean survival time, dose: 200.0 mg/kg/injection, schedule: Q04DX002 (ip), vehicle: saline with Tween-80
[15] = endpoint: mean survival time, dose: 400.0 mg/kg/injection, schedule: Q04DX002 (ip), vehicle: saline with Tween-80
[16] = endpoint: mean survival time, dose: 400.0 mg/kg/injection, schedule: Q01DX009 (ip), vehicle: saline with Tween-80

Compound: CC1(C)N=C(N)N=C(N)N1c1ccc(CNC(=O)Nc2cccc(S(=O)(=O)F)c2)cc1
- T/C (endpoint: mean survival time, dose: 6.25 mg/kg/injection, schedule: Q01DX009 (ip), vehicle: saline): 115 % of control
- T/C (endpoint: mean survival time, dose: 75.0 mg/kg/injection, schedule: Q01DX001 (ip), vehicle: other): 104 % of control
- T/C (endpoint: mean survival time, dose: 150.0 mg/kg/injection, schedule: Q01DX001 (ip), vehicle: other): 107 % of control
- T/C (endpoint: mean survival time, dose: 300.0 mg/kg/injection, schedule: Q01DX001 (ip), vehicle: other): 115 % of control

Compound: COc1ccc(NC(=O)CC(C)C(=O)O)cc1 (stereo not drawn)
- T/C [1]: 101 % of control
- T/C [2]: 100 % of control
- T/C [3]: 101 % of control

Compound: CN(C)CC1CCC/C(=C\C=C\c2ccccc2)C1=O (stereo not drawn)
- T/C (endpoint: mean survival time, dose: 12.5 mg/kg/injection, schedule: Q04DX003 (ip), vehicle: Klucel (hydroxypropylcellulose) (HPC)): 100 % of control
- T/C (endpoint: mean survival time, dose: 25.0 mg/kg/injection, schedule: Q04DX003 (ip), vehicle: Klucel (hydroxypropylcellulose) (HPC)): 103 % of control
- T/C [4]: 94 % of control

Compound: O=C(O)c1cscn1.O=C(O)c1cscn1.[I][Pt][I]
- T/C (endpoint: mean survival time, dose: 3.12 mg/kg/injection, schedule: Q04DX003 (ip), vehicle: distilled water + Tween-80): 108 % of control
- T/C [5]: 101 % of control
- T/C [6]: 104 % of control
- T/C [7]: 102 % of control
- T/C [8]: 104 % of control
- T/C (endpoint: mean survival time, dose: 50.0 mg/kg/injection, schedule: Q04DX003 (ip), vehicle: saline with Tween-80): 110 % of control
- T/C [9]: 114 % of control
- T/C [1]: 104 % of control
- T/C (endpoint: mean survival time, dose: 200.0 mg/kg/injection, schedule: Q04DX003 (ip), vehicle: distilled water + Tween-80): 119 % of control
- T/C [2]: 122 % of control
- T/C [3]: 112 % of control

Compound: CCc1ccccc1N1CCN(C(=O)c2cc(OC)c(OC)c(OC)c2)CC1
- T/C (endpoint: mean survival time, dose: 100.0 mg/kg/injection, schedule: Q01DX009 (ip), vehicle: acetone): 118 % of control
- T/C (endpoint: mean survival time, dose: 150.0 mg/kg/injection, schedule: Q01DX009 (ip), vehicle: acetone): 124 % of control
- T/C (endpoint: mean survival time, dose: 225.0 mg/kg/injection, schedule: Q01DX009 (ip), vehicle: acetone): 90 % of control

Compound: O=[N+]([O-])O.[Ga]
- T/C (endpoint: mean survival time, dose: 50.0 mg/kg/injection, schedule: Q01DX Z (ip), vehicle: saline): 119 % of control

Compound: Nc1nc2ncn(O)c2c(=O)[nH]1
- T/C (endpoint: median survival time, dose: 3.12 mg/kg/injection, schedule: Q01DX009 (ip), vehicle: other): 176 % of control
- T/C (endpoint: median survival time, dose: 6.25 mg/kg/injection, schedule: Q01DX009 (ip), vehicle: other): 195 % of control
- T/C (endpoint: median survival time, dose: 6.25 mg/kg/injection, schedule: Q01DX009 (ip), vehicle: water): 168 % of control and 172 % of control
- T/C (endpoint: median survival time, dose: 12.5 mg/kg/injection, schedule: Q01DX009 (ip), vehicle: other): 162 % of control
- T/C (endpoint: median survival time, dose: 12.5 mg/kg/injection, schedule: Q01DX009 (ip), vehicle: water): 168 % of control and 234 % of control
- T/C (endpoint: median survival time, dose: 25.0 mg/kg/injection, schedule: Q01DX009 (ip), vehicle: other): 101 % of control
- T/C (endpoint: median survival time, dose: 25.0 mg/kg/injection, schedule: Q01DX009 (ip), vehicle: water): 164 % of control

Compound: NNC(=O)C1CCN1C(c1ccccc1)c1ccccc1 (stereo not drawn)
- T/C (endpoint: mean survival time, dose: 100.0 mg/kg/injection, schedule: Q01DX001 (ip), vehicle: saline with Tween-80): 98 % of control

Compound: Cc1cccc(OCC(=O)O)c1
- T/C [10]: 97 % of control
- T/C [11]: 95 % of control
- T/C [1]: 95 % of control
- T/C [12]: 90 % of control
- T/C [2]: 93 % of control

Compound: Nc1cccc(Oc2ccc([N+](=O)[O-])cc2)c1
- T/C (endpoint: mean survival time, dose: 100.0 mg/kg/injection, schedule: Q01DX001 (ip), vehicle: Klucel (hydroxypropylcellulose) (HPC)): 97 % of control
- T/C (endpoint: mean survival time, dose: 200.0 mg/kg/injection, schedule: Q01DX001 (ip), vehicle: Klucel (hydroxypropylcellulose) (HPC)): 97 % of control

Compound: CC(C)OC(=O)Nc1nc2ccccc2s1
- T/C [13]: 92 % of control
- T/C [14]: 95 % of control
- T/C [15]: 92 % of control

Compound: C(C#CCN1CCOCC1)#CCN1CCOCC1
- T/C (endpoint: mean survival time, dose: 6.25 mg/kg/injection, schedule: Q01DX009 (ip), vehicle: Klucel (hydroxypropylcellulose) (HPC)): 96 % of control
- T/C (endpoint: mean survival time, dose: 12.5 mg/kg/injection, schedule: Q01DX009 (ip), vehicle: Klucel (hydroxypropylcellulose) (HPC)): 91 % of control
- T/C (endpoint: mean survival time, dose: 12.5 mg/kg/injection, schedule: Q01DX009 (ip), vehicle: saline with Tween-80): 95 % of control and 101 % of control
- T/C (endpoint: mean survival time, dose: 25.0 mg/kg/injection, schedule: Q01DX009 (ip), vehicle: Klucel (hydroxypropylcellulose) (HPC)): 100 % of control
- T/C (endpoint: mean survival time, dose: 25.0 mg/kg/injection, schedule: Q01DX009 (ip), vehicle: saline with Tween-80): 95 % of control and 98 % of control
- T/C (endpoint: mean survival time, dose: 50.0 mg/kg/injection, schedule: Q01DX009 (ip), vehicle: Klucel (hydroxypropylcellulose) (HPC)): 105 % of control
- T/C [10]: 93 % of control and 95 % of control
- T/C (endpoint: mean survival time, dose: 100.0 mg/kg/injection, schedule: Q01DX009 (ip), vehicle: Klucel (hydroxypropylcellulose) (HPC)): 100 % of control
- T/C [11]: 88 % of control and 90 % of control and 96 % of control
- T/C [1]: 102 % of control
- T/C (endpoint: mean survival time, dose: 200.0 mg/kg/injection, schedule: Q01DX009 (ip), vehicle: Klucel (hydroxypropylcellulose) (HPC)): 91 % of control
- T/C [12]: 95 % of control (2×) and 96 % of control
- T/C [2]: 96 % of control
- T/C (endpoint: mean survival time, dose: 400.0 mg/kg/injection, schedule: Q01DX009 (ip), vehicle: Klucel (hydroxypropylcellulose) (HPC)): 97 % of control
- T/C [16]: 95 % of control and 100 % of control and 101 % of control
- T/C [3]: 102 % of control

Compound: CC1=CCCC1
- T/C (endpoint: mean survival time, dose: 100.0 mg/kg/injection, schedule: Q04DX003 (ip), vehicle: saline): 98 % of control
- T/C (endpoint: mean survival time, dose: 200.0 mg/kg/injection, schedule: Q04DX003 (ip), vehicle: saline): 101 % of control
- T/C (endpoint: mean survival time, dose: 400.0 mg/kg/injection, schedule: Q04DX003 (ip), vehicle: saline): 95 % of control

Compound: NC(=O)c1c(Br)n(C2OC(CO)C(O)C2O)c2ncnc(N)c12 (stereo not drawn)
- T/C [10]: 105 % of control

Compound: C=CCC(O)CCCC (stereo not drawn)
- T/C [10]: 103 % of control
- T/C [11]: 103 % of control
- T/C [12]: 103 % of control

Compound: CN(C)C1=NC1(C)C.CN(C)C1=NC1(C)C.[Cl][Pd][Cl]
- T/C (endpoint: mean survival time, dose: 3.13 mg/kg/injection, schedule: Q04DX003 (ip), vehicle: distilled water + Tween-80): 96 % of control
- T/C [5]: 101 % of control
- T/C [6]: 96 % of control
- T/C [7]: 105 % of control
- T/C [8]: 101 % of control
- T/C [9]: 114 % of control

Compound: COc1ccc(NC2=NCCS2)cc1
- T/C [1]: 94 % of control
- T/C [2]: 101 % of control

Compound: O=C(Nc1cc([N+](=O)[O-])ccc1F)N(CCO)C1CCCCC1
- T/C [11]: 98 % of control
- T/C [12]: 98 % of control
- T/C [16]: 103 % of control

Compound: CN(C)S(=O)(=O)Oc1ccccc1[N+](=O)[O-]
- T/C [11]: 100 % of control
- T/C [12]: 97 % of control
- T/C [16]: 98 % of control

Compound: O=C(NCCCl)C(=O)NCCCl
- T/C [13]: 100 % of control
- T/C [14]: 100 % of control
- T/C [15]: 100 % of control

Compound: Cc1ccc(CN(C)N=Nc2ccc(C(=O)O)cc2)cc1
- T/C (endpoint: mean survival time, dose: 25.0 mg/kg/injection, schedule: Q01DX009 (ip), vehicle: other): 91 % of control
- T/C (endpoint: mean survival time, dose: 50.0 mg/kg/injection, schedule: Q01DX009 (ip), vehicle: other): 87 % of control
- T/C (endpoint: mean survival time, dose: 100.0 mg/kg/injection, schedule: Q01DX009 (ip), vehicle: other): 91 % of control
- T/C (endpoint: mean survival time, dose: 200.0 mg/kg/injection, schedule: Q01DX009 (ip), vehicle: other): 87 % of control

Compound: CC(=O)N(C)N=Nc1ccc(C(F)(F)F)cc1
- T/C [4]: 97 % of control
- T/C (endpoint: mean survival time, dose: 100.0 mg/kg/injection, schedule: Q04DX003 (ip), vehicle: Klucel (hydroxypropylcellulose) (HPC)): 102 % of control
- T/C (endpoint: mean survival time, dose: 200.0 mg/kg/injection, schedule: Q04DX003 (ip), vehicle: Klucel (hydroxypropylcellulose) (HPC)): 96 % of control
- T/C (endpoint: mean survival time, dose: 400.0 mg/kg/injection, schedule: Q04DX003 (ip), vehicle: Klucel (hydroxypropylcellulose) (HPC)): 105 % of control

Compound: COc1cc([C@@H]2c3cc4c(c(O)c3C[C@H]3COC(=O)[C@@H]32)OCO4)cc(OC)c1O
- T/C (endpoint: mean survival time, dose: 125.0 micrograms/kg/injection, schedule: Q01DX009 (ip), vehicle: saline): 102 % of control
- T/C (endpoint: mean survival time, dose: 250.0 micrograms/kg/injection, schedule: Q01DX009 (ip), vehicle: saline): 108 % of control
- T/C (endpoint: mean survival time, dose: 500.0 micrograms/kg/injection, schedule: Q01DX009 (ip), vehicle: saline): 110 % of control
- T/C (endpoint: mean survival time, dose: 1000.0 micrograms/kg/injection, schedule: Q01DX009 (ip), vehicle: saline): 122 % of control
- T/C (endpoint: mean survival time, dose: 2000.0 micrograms/kg/injection, schedule: Q01DX009 (ip), vehicle: saline): 118 % of control

Compound: COc1ccc(NC(=O)Oc2ccc(Cl)c(C)c2)cc1
- T/C [11]: 89 % of control
- T/C [16]: 92 % of control
